Results taken from publication PMC12295306, “Gut Microbial Postbiotics as Potential Therapeutics for Lymphoma: Proteomics Insights of the Synergistic Effects of Nisin and Urolithin B Against Human Lymphoma Cells” (International Journal of Molecular Sciences, 2025).

Tested on: HKB-11 lymphoma cells
Experiment: Label-free bottom-up LC-MS proteomics, differentially expressed proteins
Format: cell-based, human
Experimental: The HKB-11 lymphoma cells were placed in 6-well plates at a density of 3.0 × 10^6 cells/well and incubated overnight at 37 °C in 5% CO2. […] Treatments were performed in triplicate and incubated for 24 h under the same conditions. Following incubation, each flask of cells was subjected to a 0.25% w/v trypsin treatment for 4 min at 37 °C, and the cell culture medium was collected. Additionally, an equal volume of DMEM F-12 medium (containing 10% FBS) was added before mixing with the previously collected media to neutralise the trypsin. The cells were spun in a centrifuge at 500× g for 5 min at RT. The cell pellets were washed twice with ice-cold PBS and spun again at 500× g for 5 min. These cell pellets were then suspended in a lysis buffer that included 1 μL of universal nuclease (Easypep Mini Kit) (Thermo Fisher Scientific, Sydney, NSW, Australia) and supplemented with Halt™ Protease and Phosphatase Inhibitor Cocktail in a 1:100 ratio (Thermo Fisher Scientific, Sydney, NSW, Australia). The cells were gently pipetted 10–15 times to reduce the sample’s viscosity and then placed on ice for 20 min. The lysate was centrifuged at 14,000 rpm for 20 min at 4 °C, and the resulting liquid was collected.
The Pierce™ Rapid Gold BCA Protein Assay Kit (#A53226, Thermo Fisher Scientific, Sydney, NSW, Australia) was used to determine the protein concentration of the cell lysate in triplicate, using a bovine serum albumin (BSA) standard, following the manufacturer’s protocol. In brief, 1 μL of each sample replicate was diluted 1:20 in Milli-Q water, along with 20 μL of each standard, and then placed in a 96-well plate with 200 μL of working reagent in each well. Samples were diluted to a concentration within the 20–2000 μg/mL working range. The plate was thoroughly mixed on a plate shaker for 30 s and incubated at RT for 5 min, and then the absorbance was measured within 20 min at 480 nm using a microplate spectrophotometer (BMG CLARIOstar, Melbourne, VIC, Australia). The blank absorbance was subtracted from all other readings of standards and samples, and the sample concentration was determined using the established BSA standard calibration curve. The samples were then stored at −80 °C for further analysis.
The protein samples (100 μg) were subjected to chemical and enzymatic sample processing using the EasyPep™ Mini MS Sample Prep Kit following the manufacturer’s instructions (Thermo Fisher Scientific, Sydney, NSW, Australia) and as reported in the literature. Briefly, the sample volume was adjusted to 100 μL using a lysis buffer in a microcentrifuge tube. Subsequently, the reduction and alkylation solutions (50 μL each) were introduced, gently mixed, and incubated at 95 °C with a heat block for 10 min. The samples were allowed to cool to RT, after which 50 μL of the reconstituted trypsin/lys-C protease mixture was added to each sample and incubated with shaking at 37 °C for 3 h. Following incubation, 50 μL of a digestion stop solution was gently mixed into the samples. Peptide clean-up columns were used to remove both hydrophilic and hydrophobic impurities. The resulting clean peptide samples were dehydrated using a vacuum centrifuge and reconstituted in 100 μL of a 0.1% formic acid solution in water for LC–MS analysis. Subsequently, these samples were carefully transferred to maximum recovery sample vials (Waters Corp., Milford, MA, USA).
Label-free, bottom-up proteomic quantification was performed using a micro high-performance liquid chromatography system (Waters M-Class) coupled with a SCIEX™ TripleTOF® 6600 quadrupole time-of-flight mass spectrometer (SCIEX, Framingham, MA, USA), operated in positive electrospray ionisation mode (ESI+). […]

[1] = HKB-11, UB 300 μM, 24 h, vs untreated control, Q ≤ 0.05
[2] = HKB-11, N 3200 μM, 24 h, vs untreated control, Q ≤ 0.05

O=c1oc2cc(O)ccc2c2ccccc12 [UB, Urolithin B]
Log2FC APOC3 (Apolipoprotein C-III) [1]: 2.04
Log2FC C4BPA (C4b-binding protein alpha chain) [1]: 4.39
Log2FC CLEC11A (C-type lectin domain family 11 member A) [1]: 3.06
Log2FC COX6C (Cytochrome c oxidase subunit 6C) [1]: 2.07
Log2FC COX7C (Cytochrome c oxidase subunit 7C, mitochondrial) [1]: 2.08
Log2FC FGB (Fibrinogen beta chain) [1]: 2.14
Log2FC GSN (Gelsolin) [1]: 2.26
Log2FC HBD (Haemoglobin subunit delta; Haemoglobin subunit beta) [1]: 5.94
Log2FC HBE1 (Haemoglobin subunit epsilon; gam1; gamma-2) [1]: 5.63
Log2FC ITIH2 (Inter-alpha-trypsin inhibitor heavy chain H2) [1]: 2.76
Log2FC MAD2L1 (Mitotic spindle assembly checkpoint protein MAD2A) [1]: −1.45
Log2FC MT-CO2 (Cytochrome c oxidase subunit 2) [1]: 2.34
Log2FC MT-ND4 (NADH-ubiquinone oxidoreductase chain 4) [1]: 2.24
Log2FC NDUFA11 (NADH dehydrogenase [ubiquinone] 1 alpha subcomplex subunit 11) [1]: 2.18
Log2FC PCNA (Proliferating cell nuclear antigen) [1]: −0.63
Log2FC PSME3 (Proteasome activator complex subunit 3) [1]: −0.59
Log2FC SAMM50 (Sorting and assembly machinery component 50 homolog) [1]: 2.01
Log2FC UBE2E1 (Ubiquitin-conjugating enzyme E2 E1; E2 E3; E2 E2) [1]: −1.69
Log2FC UBE2S (Ubiquitin-conjugating enzyme E2 S) [1]: −1.21

Nisin (ITSISLCTPGCKTGALMGCNMKTATCHCSIHVSK; Lantibiotic nisin-A; UniProt P13068 24-57, looked up) [34-amino-acid lantibiotic peptide (bacteriocin) produced by Lactococcus lactis; purchased]
Log2FC CDK4 (Cyclin-dependent kinase 4) [2]: −1.26
Log2FC CTNNA1 (Catenin alpha-1) [2]: −0.97
Log2FC HDAC1 (Histone deacetylase 1) [2]: −0.67
Log2FC LARP1 (La-related protein 1) [2]: −1.27
Log2FC MAPK14 (Mitogen-activated protein kinase 14) [2]: −0.80
Log2FC NUP62 (Nuclear pore glycoprotein p62) [2]: −0.60
Log2FC POLR2E (DNA-directed RNA polymerases I, II, and III subunit RPABC1) [2]: −0.62
Log2FC POLR2G (DNA-directed RNA Polymerase II subunit RPB7) [2]: −0.63
Log2FC POLR2H (DNA-directed RNA polymerases I, II, and III subunit RPABC3) [2]: −0.59
Log2FC PPP1R14B (Protein phosphatase 1 regulatory subunit 14B) [2]: −0.93
Log2FC PRC1 (Protein regulator of cytokinesis 1) [2]: −0.72
Log2FC RFC1 (Replication factor C subunit 1) [2]: −0.85
Log2FC RFC2 (Replication factor C subunit 2) [2]: −0.59
Log2FC SRPK2 (SRSF protein kinase 2) [2]: −0.70
Log2FC TYMS (Thymidylate synthase) [2]: −1.54
Log2FC PCNA (HKB-11, N treatment (3200 µM), 24 h, vs untreated control): −0.63
Log2FC PLPBP (Pyridoxal phosphate homeostasis protein) (HKB-11, Nisin_3.2 / Control, Qvalue 0.00903294): 0.58
Log2FC THOC3 (THO complex subunit 3) (HKB-11, Nisin_3.2 / Control, Qvalue 0.0139626): -0.58
Log2FC MAZ (Myc-associated zinc finger protein) (HKB-11, Nisin_3.2 / Control, Qvalue 0.0377318): -0.58
Log2FC TXNDC9 (Thioredoxin domain-containing protein 9) (HKB-11, Nisin_3.2 / Control, Qvalue 0.0383948): -0.58
